Data set [1] concerns A549. Kind of data set: Antiproliferative activity against human A549 cells assessed as reduction in cell viability measured after 72 hrs by SRB assay. The conditions noted are these: A549, 72 h. (The SRB assay estimates cell density from bound dye.)
Data set [2] has as its system MDA-MB-231. Kind of data set: Antiproliferative activity against human MDA-MB-231 cells assessed as reduction in cell viability measured after 72 hrs by SRB assay. The class given is functional, cell-based. The conditions noted are these: MDA-MB-231, 72 h.
Data set [3] concerns KB. In words: Antiproliferative activity against human KB cells assessed as reduction in cell viability measured after 72 hrs by SRB assay. The class given is functional, cell-based.
The nature of data set [4]: Antiproliferative activity against human KB-VIN cells assessed as reduction in cell viability after 72 hrs by SRB assay. In kind it is functional, cell-based. The conditions noted are these: KBVIN.
Data set [5] has as its system MCF7. In words: Antiproliferative activity against human MCF7 cells assessed as reduction in cell viability measured after 72 hrs by SRB assay. The conditions noted are these: MCF7, 72 h. The class given is functional, cell-based.
Data set [6] concerns Human immunodeficiency virus 1. In words: Antiviral activity against HIV-1 NL4-3 infected in human MT4 cells assessed as reduction in p24 production treated at 48 hrs post-infection and measured on day 4 post-viral infection by ELISA. In kind it is functional, organism-based. The conditions noted are these: Human immunodeficiency virus 1, NL4-3, MT4. For orientation: ELISA stands for enzyme-linked immunosorbent assay.

Data set [7] deals with MT4. In words: Cytotoxicity against human MT4 cells assessed as reduction in cell viability by CellTiter-Glo luminescence assay. In kind it is cell-based.

A value given as a limit tells only on which side of the number the result lay.

As for `CC(=O)O[C@@H]1[C@@H](C)[C@@]2(O)[C@@H](C=C(CO)C[C@]3(O)C(=O)C(C)=C[C@@H]23)[C@@H]2C(C)(C)[C@]12OC(C)=O`, the concentration for half-maximal inhibition (IC50) in data set [1] was 7.49 µM; in data set [2], 8.91 µM; in data set [3], above 10 µM; in data set [4], above 10 µM; in data set [5] it was above 10 µM; in data set [6] it was 1.36 µM. The CC75 in data set [7] was above 10 µM.

As to `CC(=O)OCC1=C[C@H]2[C@@H]3C(C)(C)[C@]3(OC(C)=O)[C@H](O)[C@@H](C)[C@]2(O)[C@@H]2C=C(C)C(=O)[C@@]2(O)C1`, in data set [7], the CC75 is above 5 µM.

Turning to `CC(=O)OCC1=C[C@H]2[C@@H]3C(C)(C)[C@]3(OC(C)=O)[C@H](OC(C)=O)[C@@H](C)[C@]2(O)[C@@H]2C=C(C)C(=O)[C@@]2(O)C1`, the IC50 in data set [1], in data set [2], in data set [3], in data set [4], in data set [5] and in data set [6] was above 10 µM in each case. In data set [7], the CC75 was above 5 µM.

As for `CC/C=C/C/C=C/C/C=C/C/C=C/C/C=C/CCCC(=O)OCC1=C[C@H]2[C@@H]3C(C)(C)[C@]3(OC(=O)CCC/C=C/C/C=C/C/C=C/C/C=C/C/C=C/CC)[C@H](O)[C@@H](C)[C@]2(O)[C@@H]2C=C(C)C(=O)[C@@]2(O)C1`, the IC50 in data set [1] was above 10 µM; in data set [2], above 10 µM; in data set [3], above 10 µM; in data set [4] it was above 10 µM; in data set [5], above 10 µM; in data set [6], 2.23 µM. Besides, the CC75 in data set [7] is above 5 µM.

Turning to `CCCC(=O)OCC1=C[C@H]2[C@@H]3C(C)(C)[C@]3(OC(=O)CCC)[C@H](OC(=O)/C=C/c3ccc(OC(C)=O)c(OC)c3)[C@@H](C)[C@]2(O)[C@@H]2C=C(C)C(=O)[C@@]2(O)C1`, the IC50 in data set [1] is 3.71 µM; in data set [2] it was 6.06 µM; in data set [3] it was 8.54 µM; in data set [4], 12.6 µM; in data set [5] it was 9.32 µM; in data set [6], above 10 µM.

For the compound `COc1cc(/C=C/C(=O)O[C@@H]2[C@@H](C)[C@@]3(O)[C@@H](C=C(CO)C[C@]4(O)C(=O)C(C)=C[C@@H]34)[C@@H]3C(C)(C)[C@]23OC(C)=O)ccc1O`, the IC50 in data set [1] is above 10 µM; in data set [2], above 10 µM; in data set [3], above 10 µM; in data set [4], above 10 µM; in data set [5] it was above 10 µM; in data set [6], 0.362 µM. The CC75 in data set [7] was above 5 µM.

Turning to `CC/C=C/C/C=C/C/C=C/C/C=C/C/C=C/CCCC(=O)OCC1=C[C@H]2[C@@H]3C(C)(C)[C@]3(OC(=O)CCC/C=C/C/C=C/C/C=C/C/C=C/C/C=C/CC)[C@H](OC(=O)CCC/C=C/C/C=C/C/C=C/C/C=C/C/C=C/CC)[C@@H](C)[C@]2(O)[C@@H]2C=C(C)C(=O)[C@@]2(O)C1`, the IC50 was above 10 µM in data set [1]; 10.1 µM in data set [2]; above 40 µM in data set [3]; above 40 µM in data set [4]; above 10 µM in data set [5]; above 10 µM in data set [6]. Besides, in data set [7], the CC75 was above 5 µM.

As for `CC1=C[C@H]2[C@@]3(O)[C@H](C)[C@@H](OC(=O)/C=C/c4ccccc4)[C@]4(OC(=O)/C=C/c5ccccc5)[C@H]([C@@H]3C=C(COC(=O)/C=C/c3ccccc3)C[C@]2(O)C1=O)C4(C)C`, the half-maximal inhibitory concentration (IC50) in data set [1], in data set [2], in data set [3], in data set [4], in data set [5] and in data set [6] was above 10 µM in each case. The CC75 in data set [7] was above 5 µM.

Regarding `C/C=C/C(=O)O[C@@H]1[C@@H](C)[C@@]2(O)[C@@H](C=C(CO)C[C@]3(O)C(=O)C(C)=C[C@@H]23)[C@@H]2C(C)(C)[C@]12OC(=O)/C=C/C`, the IC50 in data set [1] is above 10 µM; in data set [2], above 10 µM; in data set [3], above 10 µM; in data set [4], above 10 µM; in data set [5], above 10 µM; in data set [6], 0.408 µM. The CC75 in data set [7] was above 10 µM.

For the compound `CCCCCCCCCCCCCCCCCCCC(=O)O[C@@H]1[C@@H](C)[C@@]2(O)[C@@H](C=C(CO)C[C@]3(O)C(=O)C(C)=C[C@@H]23)[C@@H]2C(C)(C)[C@]12OC(=O)CCCCCCCCCCCCCCCCCCC`, the IC50 in data set [1], in data set [2], in data set [3], in data set [4], in data set [5] and in data set [6] was above 10 µM throughout. In data set [7], the CC75 was above 5 µM.

`CC/C=C/C/C=C/C/C=C/C/C=C/C/C=C/CCCC(=O)O[C@@H]1[C@@H](C)[C@@]2(O)[C@@H](C=C(CO)C[C@]3(O)C(=O)C(C)=C[C@@H]23)[C@@H]2C(C)(C)[C@]12OC(=O)CCC/C=C/C/C=C/C/C=C/C/C=C/C/C=C/CC`: the IC50 is above 10 µM in data set [1]; above 10 µM in data set [2]; above 10 µM in data set [3]; above 10 µM in data set [4]; above 10 µM in data set [5]; 0.11 µM in data set [6]. Moreover, the CC75 in data set [7] was above 5 µM.

`CCCC(=O)OCC1=C[C@H]2[C@@H]3C(C)(C)[C@]3(OC(=O)CCC)[C@H](O)[C@@H](C)[C@]2(O)[C@@H]2C=C(C)C(=O)[C@@]2(O)C1`: the CC75 in data set [7] is above 5 µM.

On to `C/C=C(/C)C(=O)O[C@]12C([C@@H]3C=C(CO)C[C@]4(O)C(=O)C(C)=C[C@H]4[C@@]3(O)[C@H](C)[C@H]1O)C2(C)C` (single isomer, unassigned), for which the IC50 in data set [1], in data set [2], in data set [3], in data set [4], in data set [5] and in data set [6] was above 10 µM each time. Further, the CC75 in data set [7] was above 5 µM.

As for `CC1=C[C@H]2[C@@]3(O)[C@H](C)[C@@H](O)[C@]4(OC(=O)/C=C/c5ccccc5)C([C@@H]3C=C(CO)C[C@]2(O)C1=O)C4(C)C` (single isomer, unassigned), the IC50 in data set [1], in data set [2], in data set [3], in data set [4], in data set [5] and in data set [6] was above 10 µM each time. In addition, in data set [7], the CC75 is above 5 µM.

With `CCCC(=O)OCC1=C[C@H]2C3C(C)(C)[C@]3(OC(=O)CCC)[C@H](OC(=O)/C=C/c3ccccc3)[C@@H](C)[C@]2(O)[C@@H]2C=C(C)C(=O)[C@@]2(O)C1` (single isomer, unassigned), the 50% inhibitory concentration (IC50) in data set [1] was 3.27 µM; in data set [2], 6.3 µM; in data set [3], above 10 µM; in data set [4] it was above 10 µM; in data set [5] it was above 10 µM; in data set [6], 0.0733 µM. The CC75 in data set [7] was above 5 µM.

Turning to `CC1=C[C@H]2[C@@]3(O)[C@H](C)[C@@H](O)[C@]4(OC(=O)CCc5ccccc5)C([C@@H]3C=C(CO)C[C@]2(O)C1=O)C4(C)C` (single isomer, unassigned), the IC50 in data set [1] was above 10 µM; in data set [2] it was above 10 µM; in data set [3], above 10 µM; in data set [4], above 10 µM; in data set [5], above 10 µM; in data set [6] it was 5.46 µM. Moreover, the CC75 in data set [7] is above 10 µM.

Turning to `COc1cc(/C=C/C(=O)O[C@]23C([C@@H]4C=C(CO)C[C@]5(O)C(=O)C(C)=C[C@H]5[C@@]4(O)[C@H](C)[C@H]2O)C3(C)C)ccc1C(C)=O` (single isomer, unassigned), the IC50 in data set [1], in data set [2], in data set [3], in data set [4], in data set [5] and in data set [6] was above 10 µM throughout. Besides, in data set [7], the CC75 is above 5 µM.

As to `C/C=C/C(=O)OCC1=C[C@H]2C3C(C)(C)[C@]3(OC(=O)/C=C/C)[C@H](O)[C@@H](C)[C@]2(O)[C@@H]2C=C(C)C(=O)[C@@]2(O)C1` (single isomer, unassigned), the IC50 in data set [1] is 6.22 µM; in data set [2] it was 6.7 µM; in data set [3], above 10 µM; in data set [4] it was above 10 µM; in data set [5], above 10 µM; in data set [6], above 10 µM. Further, the CC75 in data set [7] was above 5 µM.

As to `C/C=C/C(=O)O[C@]12C([C@@H]3C=C(CO)C[C@]4(O)C(=O)C(C)=C[C@H]4[C@@]3(O)[C@H](C)[C@H]1O)C2(C)C` (single isomer, unassigned), the half-maximal inhibitory concentration (IC50) in data set [1], in data set [2], in data set [3], in data set [4], in data set [5] and in data set [6] was above 10 µM throughout. The CC75 in data set [7] is above 5 µM.

Consider `CC(=O)O[C@H]1C(=O)[C@@]2(C)[C@H]([C@H](OC(=O)c3ccccc3)[C@]3(O)C[C@H](OC(=O)[C@H](O)[C@@H](NC(=O)c4ccccc4)c4ccccc4)C(C)=C1C3(C)C)[C@]1(OC(C)=O)CO[C@@H]1C[C@@H]2O` [PACLITAXEL], for which the IC50 worked out at 0.008 µM in data set [2], 0.008 µM in data set [3], 2.54 µM in data set [4] and 0.015 µM in data set [5].

Consider `Cc1cn([C@H]2C[C@H](N=[N+]=[N-])[C@@H](CO)O2)c(=O)[nH]c1=O` [ZIDOVUDINE], for which the IC50 in data set [6] stood at 0.0169 µM. The CC75 in data set [7] is above 0.37 µM.

What is called IC50 is the midpoint of a concentration-inhibition curve.
